Counter-ions that a name gives are not always drawn.
Each compound was assayed against T1, human A3AR (Homo sapiens, UniProt P0DMS8) (assay: LOPAC library primary screen: single concentration (10 μM) inhibition of 25 nM CA200645 binding, PHERAstar FS). Conditions: not given.
T1 construct: expressed in transfected cells
T1 sequence (P0DMS8 1-318): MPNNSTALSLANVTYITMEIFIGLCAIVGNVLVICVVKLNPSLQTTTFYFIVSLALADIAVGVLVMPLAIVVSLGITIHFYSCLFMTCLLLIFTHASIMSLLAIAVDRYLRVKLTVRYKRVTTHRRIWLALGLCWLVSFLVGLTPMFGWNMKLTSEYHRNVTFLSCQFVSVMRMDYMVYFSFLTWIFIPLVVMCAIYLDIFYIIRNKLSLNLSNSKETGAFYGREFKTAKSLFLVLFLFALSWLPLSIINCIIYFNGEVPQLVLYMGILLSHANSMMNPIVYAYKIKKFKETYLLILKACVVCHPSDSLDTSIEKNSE

Row | Structure (SMILES) | % 25 nM CA200645 binding | % Total CA200645 binding | hit in LOPAC primary screen (inhibited the binding of CA200645 by >40%)
1 | O=C(O)C1CCCNC1 (racemic) [(±)-Nipecotic acid] | 101.9 ± 5.9% | – | –
2 | NC[C@H](O)c1ccc(O)c(O)c1.O=C(O)C(O)C(O)C(=O)O (racemic) [(±)-Norepinephrine (+)bitartrate] | 87.1 ± 8.1% | – | –
3 | Cl.NCC(O)c1ccc(O)cc1 (racemic) [(±)-Octopamine hydrochloride] | 103.0 ± 1.6% | – | –
4 | CCCN1CCOC2c3cc(O)ccc3OCC21.Cl (racemic) [(±)-PD 128,907 hydrochloride] | 103.2 ± 2.1% | – | –
5 | CCCN(CCc1ccccc1)C1CCc2c(O)cccc2C1.Cl (racemic) [(±)-PPHT hydrochloride] | 101.7 ± 5.1% | – | –
6 | CC(C)NCC(O)COc1cccc2ccccc12.Cl (racemic) [(±)-Propranolol hydrochloride] | 106.0 ± 10.5% | – | –
7 | Br.C=CCN1CCc2cc(O)c(O)cc2C(c2ccccc2)C1 (racemic) [(±)-SKF 38393, N-allyl-, hydrobromide] | 99.7 ± 11.6% | – | –
8 | Cl.Oc1cc2c(cc1O)C(c1ccccc1)CNCC2 (racemic) [(±)-SKF-38393 hydrochloride] | 99.4 ± 9.0% | – | –
9 | CC(C)NCC(O)c1ccc(NS(C)(=O)=O)cc1.Cl (racemic) [(±)-Sotalol hydrochloride] | 93.5 ± 12.0% | – | –
10 | CCN1CCCC1CNC(=O)c1cc(S(N)(=O)=O)ccc1OC (racemic) [(±)-Sulpiride] | 102.1 ± 6.1% | – | –
11 | CNCC(O)c1ccc(O)cc1 (racemic) [(±)-Synephrine] | 90.7 ± 28.9% | – | –
12 | O=C1c2c(O)cc(O)cc2O[C@H](c2ccc(O)c(O)c2)[C@H]1O (racemic) [(±)-Taxifolin] | 111.1 ± 7.5% | – | –
13 | O=C1CCC(N2C(=O)c3ccccc3C2=O)C(=O)N1 (racemic) [(±)-Thalidomide] | 108.7 ± 11.6% | – | –
14 | COc1cc(C(O)C(=O)O)ccc1O (racemic) [(±)-Vanillylmandelic acid] | 97.4 ± 12.9% | – | –
15 | Cl.OC1CCCCC1N1CCC(c2ccccc2)CC1 (racemic) [(±)-Vesamicol hydrochloride] | 112.9 ± 7.4% | – | –
16 | O=C(O)CCCCC1CCSS1 (racemic) [(±)-alpha-Lipoic Acid] | 99.7 ± 5.6% | – | –
17 | O=C(O)[C@H]1CCCN[C@H]1C(=O)O (racemic) [(±)-cis-Piperidine-2,3-dicarboxylic acid] | 99.4 ± 1.9% | – | –
18 | C=CC(N)CCC(=O)O (racemic) [(±)-gamma-Vinyl GABA] | 96.9 ± 7.5% | – | –
19 | CCC1(c2ccc(N)cc2)CCC(=O)NC1=O (racemic) [(±)-p-Aminoglutethimide] | 94.1 ± 8.7% | – | –
20 | NC(Cc1ccc(Cl)cc1)C(=O)O (racemic) [(±)-p-Chlorophenylalanine] | 94.9 ± 9.4% | – | –

Row | Structure (SMILES) | % 25 nM CA200645 binding | % Total CA200645 binding | hit in LOPAC primary screen (inhibited the binding of CA200645 by >40%)
21 | N[C@@H]1CONC1=O (racemic) [DL-Cycloserine] | 97.4 ± 8.2% | – | –
22 | CCCCCCCCCCCCCCCCCC(=O)OC(CC(=O)O)C[N+](C)(C)C.[Cl-] (racemic) [DL-Stearoylcarnitine chloride] | 44.2 ± 6.0% | – | –
23 | CC(N)(Cc1ccc(O)cc1)C(=O)O (racemic) [DL-alpha-Methyl-p-tyrosine] | 102.4 ± 5.8% | – | –
24 | CCCCCCCCCCCCCCC[C@H](O)[C@H](N)CO (racemic) [DL-erythro-Dihydrosphingosine] | 98.5 ± 11.2% | – | –
25 | NC(C(=O)O)C(O)C(=O)O (racemic) [DL-threo-beta-hydroxyaspartic acid] | 97.0 ± 9.5% | – | –
26 | CCCCCCCCCCCCCCCC(=O)OC(CC(=O)O)C[N+](C)(C)C.[Cl-] (racemic) [Palmitoyl-DL-Carnitine chloride] | 82.9 ± 21.8% | – | –
27 | CCN1CCC[C@H]1CNC(=O)c1c(O)c(Cl)cc(Cl)c1OC.O=C(O)C(O)C(O)C(=O)O (racemic) [S(+)-Raclopride L-tartrate] | 98.6 ± 4.9% | – | –
28 | Br.CCCN1CCC2c3cc(O)ccc3CCC21 (racemic) [cis(+/-)-8-OH-PBZI hydrobromide] | 98.1 ± 5.1% | – | –
29 | COc1ccc2c(c1OC)C(=O)OC2C1c2cc3c(cc2CCN1C)OCO3 (single isomer, unassigned; (+)) [(+)-Hydrastine] | 95.9 ± 10.1% | – | –
30 | CC12NC(Cc3ccccc31)c1ccccc12.O=C(O)/C=C\C(=O)O (single isomer, unassigned; (+)) [(+)-MK-801 hydrogen maleate] | 104.8 ± 18.5% | – | –
31 | CC(C)NCC(O)c1ccc(O)c(O)c1.Cl (single isomer, unassigned; (-)) [(-)-Isoproterenol hydrochloride] | 98.6 ± 14.4% | – | –
32 | C[N+]1(C)[C@@H]2CC(OC(=O)[C@H](CO)c3ccccc3)C[C@H]1[C@@H]1O[C@@H]12.O=[N+]([O-])[O-] (single isomer, unassigned; (-)) [(-)-Scopolamine methyl nitrate] | 89.5 ± 24.4% | – | –
33 | CC(N)C(O)c1ccc(O)c(O)c1 (single isomer, unassigned; (-)) [(-)-alpha-Methylnorepinephrine] | 100.4 ± 6.1% | – | –
34 | Nc1nc(Cl)nc2c1ncn2[C@@H]1O[C@H](COP(=O)(O)OP(=O)(O)OP(=O)(O)O)C(O)C1O (stereo in doubt) | 89.5 ± 23.0% | – | –
35 | N.N.N.Nc1ncnc2c1ncn2C1OC(COP(=O)(O)OP(=O)(O)OP(=O)(O)OP(=O)(O)OC[C@H]2O[C@@H](n3cnc4c(N)ncnc43)C(O)C2O)[C@@H](O)C1O (stereo in doubt) | 101.2 ± 10.2% | – | –
36 | Nc1ncnc2c1nc(Sc1ccc(Cl)cc1)n2C1OC2COP(=O)(O)OC2C1O (stereo in doubt) [8-(4-Chlorophenylthio)-cAMP sodium] | 91.8 ± 2.6% | – | –
37 | CCCCC1(C2CCCC2)Cc2cc(OCC(=O)O)c(Cl)c(Cl)c2C1=O (stereo in doubt) [R(+)-Butylindazone] | 91.2 ± 11.8% | – | –
38 | Cn1c(=O)c2[nH]c(-c3ccccc3)nc2n(C)c1=O [1,3-Dimethyl-8-phenylxanthine] | 91.8 ± 4.8% | – | –
39 | CCCn1c(=O)c2c(ncn2C)n(CCC)c1=O [1,3-Dipropyl-7-methylxanthine] | 102.9 ± 21.6% | – | –
40 | CCCn1c(=O)c2[nH]c(-c3ccc(S(=O)(=O)O)cc3)nc2n(CCC)c1=O [1,3-dipropyl-8-p-sulfophenylxanthine, reference compound] | 42.3 ± 4.8% | 42.3 ± 4.8% | identified

Row | Structure (SMILES) | % 25 nM CA200645 binding | % Total CA200645 binding | hit in LOPAC primary screen (inhibited the binding of CA200645 by >40%)
41 | OC[C@H]1NC[C@@H](O)[C@@H]1O [1,4-Dideoxy-1,4-imino-D-arabinitol] | 90.0 ± 6.2% | – | –
42 | Oc1cccc2c(O)nccc12 [1,5-Isoquinolinediol] | 97.2 ± 4.1% | – | –
43 | Cn1c(=O)[nH]c2ncn(C)c2c1=O [1,7-Dimethylxanthine] | 100.9 ± 19.4% | – | –
44 | O.c1cnc2c(c1)ccc1cccnc12 [1,10-Phenanthroline monohydrate] | 90.7 ± 13.0% | – | –
45 | Oc1ccc(Cn2cc[nH]c2=S)cc1 [1-(4-Hydroxybenzyl)imidazole-2-thiol] | 87.3 ± 21.6% | – | –
46 | Nn1nnc2ccccc21 [1-Aminobenzotriazole] | 83.5 ± 18.8% | – | –
47 | OC[C@H]1NC[C@H](O)[C@@H](O)[C@@H]1O [1-Deoxynojirimycin hydrochloride] | 98.5 ± 11.6% | – | –
48 | Cl.Cl.Cn1cnc(CCN)c1 [1-Methylhistamine dihydrochloride] | 99.7 ± 10.5% | – | –
49 | Cn1ccnc1 [1-Methylimidazole] | 115.7 ± 16.4% | – | –
50 | S=C(Nc1ccccc1)Nc1nccs1 [1-Phenyl-3-(2-thiazolyl)-2-thiourea] | 94.0 ± 11.6% | – | –
51 | N=C(N)NC(=N)Nc1ccccc1 [1-Phenylbiguanide] | 96.2 ± 2.3% | – | –
52 | FC(F)(F)c1ccccc1-n1ccnc1 [1-[2-(Trifluoromethyl)phenyl]imidazole] | 101.2 ± 9.4% | – | –
53 | Cc1cn([C@H]2C=C[C@@H](CO)O2)c(=O)[nH]c1=O [2',3'-didehydro-3'-deoxythymidine] | 82.1 ± 11.9% | – | –
54 | c1ccc(-c2ccccn2)nc1 [2,2'-Bipyridyl] | 105.2 ± 7.5% | – | –
55 | CC(=O)C(C)=NO [2,3-Butanedione monoxime] | 109.9 ± 13.3% | – | –
56 | CC(=O)C(C)=O [2,3-Butanedione] | 101.3 ± 15.0% | – | –
57 | COC1=C(OC)C(=O)c2ccccc2C1=O [2,3-Dimethoxy-1,4-naphthoquinone] | 99.3 ± 8.8% | – | –
58 | Nc1nc(Cl)nc2c1ncn2[C@@H]1O[C@H](CO)[C@@H](O)[C@H]1O [2-CADO, reference compound] | – | 51.0 ± 6.7% | –
59 | O=C[C@H](Cl)[C@@H](O)[C@H](O)[C@H](O)CO [2-Chloro-2-deoxy-D-glucose] | 89.9 ± 5.0% | – | –
60 | Nc1nc(Cl)nc2c1ncn2[C@@H]1O[C@H](CO)[C@@H](O)[C@H]1O [2-Chloroadenosine] | 51.0 ± 6.7% | – | –

Same assay, conditions: % of control wells (1% DMSO and 25 nM CA200645); compounds at 10 µM; […]; mean ± SD, three experiments in duplicate

Row | Structure (SMILES) | % 25 nM CA200645 binding
61 | CN1CCN(C2Cc3ccccc3Sc3ccc(Cl)cc32)CC1.O=C(O)/C=C\C(=O)O (racemic) [(±)-Octoclothepin maleate] | 83.2 ± 25.2%

Same assay, conditions: % of control wells (1% DMSO and 25 nM CA200645); compounds at 10 µM; whole live cells expressing the A3AR; mean ± SD, three experiments in duplicate

Row | Structure (SMILES) | % 25 nM CA200645 binding
62 | O=C(O)CNC(=O)C(CS)Cc1ccccc1 (racemic) [DL-Thiorphan] | 100.0 ± 12.5%

Same assay, conditions: compounds tested at 10 µM; % of control wells (1% DMSO and 25 nM CA200645); […]; mean ± SD, three experiments in duplicate

Row | Structure (SMILES) | % 25 nM CA200645 binding
63 | COc1cc(C(O)CN)ccc1O.Cl (racemic) [(±)-Normetanephrine hydrochloride] | 95.5 ± 24.8%

From PMC5733478, “A Non-imaging High Throughput Approach to Chemical Library Screening at the Unmodified Adenosine-A3 Receptor in Living Cells” (Frontiers in Pharmacology, 2017)
